Active and inactive are the calls of the source. How the calls were made is not given here.
Tested on: rodent carcinogenicity bioassays, tumor incidence
Assay: CCRIS carcinogenicity studies
Outline: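 Archive of carcinogenicity, mutagenicity, tumor promotion and tumor inhibition results drawn from journals, NCI reports and other sources, expert-reviewed; covers 1985-2011 and is no longer updated.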

**Q.** Which results are given for `Cc1c2ccccc2c(C)c2c1ccc1ccccc12`?
**A.** carcinogen call (Species: FISH, Strain/Sex: KING COBRA GUPPY/ MALE, FEMALE, Route: IMMERSION, Dose: 0, 0.86, 3.18, 0.90 PPB (LOW DOSE) GIVEN AS SEPARATE DOSES OVER A 4 WK PERIOD, EACH DOSE GIVEN 6 HR/D FOR 1 DAY, 0, 16.3, Dose: 0, 0.86, 3.18, 0.90 PPB (LOW DOSE) GIVEN AS SEPARATE DOSES OVER A 4 WK PERIOD, EACH DOSE GIVEN 6 HR/D FOR 1 DAY, 0, 16.3, Tumor Site: Type of Lesion: LIVER: HEPATOCELLULAR ADENOMA, HEPATOCELLULAR CARCINOMA): active; positive; carcinogen call (Species: FISH, Strain/Sex: SHEEPSHEAD MINNOW/MALE, FEMALE, Route: IMMERSION, Dose: 0, 1, 30, 1200 PPB APPROXIMATE CONCENTRATIONS ADMINISTERED 1/WK FOR 6 OR 24 HR FOR 1 OR 2 WK (STUDY DURATION: 39 WK), Dose: 0, 1, 30, Tumor Site: Type of Lesion: LIVER: ALTERED FOCI, HEPATOCELLULAR ADENOMA OR HEPATOCELLULAR CARCINOMA): active; positive; carcinogen call (Species: HAMSTER, Strain/Sex: SYRIAN/FEMALE, Route: TONGUE, Dose: 0, 0.10 ML OF A 0.5% ACETONE SOLUTION TO BORDER OF MIDDLE THIRD PORTION OF TONGUE 3/WK FOR 4 WK (STUDY DURATION: 11 WK)): inactive; negative; carcinogen call (Species: HAMSTER, Strain/Sex: SYRIAN/FEMALE, Route: TONGUE, Dose: 0, 0.10 ML OF A 0.5% ACETONE SOLUTION TO BORDER OF MIDDLE THIRD PORTION OF TONGUE 3/WK FOR 6 WK (STUDY DURATION: 11 WK), Tumor Site: Type of Lesion: TONGUE: CARCINOMA): active; positive; carcinogen call (Species: HAMSTER, Strain/Sex: SYRIAN/FEMALE, Route: TONGUE, Dose: 0, 0.10 ML OF A 0.5% ACETONE SOLUTION TO BORDER OF MIDDLE THIRD PORTION OF TONGUE 3/WK FOR 8 WK (STUDY DURATION: 11 WK), Tumor Site: Type of Lesion: TONGUE: CARCINOMA): active; positive; carcinogen call (Species: HAMSTER, Strain/Sex: SYRIAN/MALE,FEMALE, Route: DERMAL, Dose: 80 µL OF 1% SOLN IN MINERAL OIL ONCE OR 1/WK FOR 3 WK, Tumor Site: Type of Lesion: INTEGUMENTARY SYSTEM (SKIN): PAPILLOMA, SQUAMOUS CELL CARCINOMA, ANGIOMA, MELANOTIC AND ADNEXAL TUMOR): active; positive; carcinogen call (Species: HAMSTER, Strain/Sex: SYRIAN/MALE,FEMALE, Route: DERMAL, Dose: 80 µL OF 1% SOLN IN MINERAL OIL ONCE, Tumor Site: Type of Lesion: INTEGUMENTARY SYSTEM (SKIN): AMELANOTIC DERMAL MELANOCYTOMA): active; positive; carcinogen call (Species: HAMSTER, Strain/Sex: SYRIAN/MALE,FEMALE, Route: SUBCUTANEOUS, Dose: 0.005-20 MG IN 1 ML OLIVE OIL ONCE, Tumor Site: Type of Lesion: INJECTION SITE: SARCOMA): active; positive; carcinogen call (Species: MOUSE, Strain/Sex: ALBINO/MALE, Route: DERMAL, Dose: 0.05% IN OLIVE OIL OR ACETONE, 0.2 ML 2/WK, Tumor Site: Type of Lesion: INTEGUMENTARY SYSTEM (SKIN)): active; positive; carcinogen call (Species: MOUSE, Strain/Sex: B6C3F1/MALE, Route: INTRAPERITONEAL, Dose: 0, 0.00075, 0.0015, 0.003 UMOL/G IN 10 µL/G TRIOCTANOIN ONCE ON 12 D OF AGE (STUDY DURATION: 10 MO), Dose: 0, 0.00075, 0.0015, 0.003 UMOL/G IN 10 µL/G TRIOCTANOIN ONCE ON 12 D OF AGE (STUDY DURATION: 10 MO), Tumor Site: Type of Lesion: LIVER: HEPATOMA): active; positive; carcinogen call (Species: MOUSE, Strain/Sex: B6C3F1/MALE, Route: INTRAPERITONEAL, Dose: 0, 0.003, 0.01, 0.03 UMOL/G IN 10 µL/G TRIOCTANOIN ONCE ON 12 D OF AGE (STUDY DURATION: 8.5 MO), Dose: 0, 0.003, 0.01, 0.03 UMOL/G IN 10 µL/G TRIOCTANOIN ONCE ON 12 D OF AGE (STUDY DURATION: 8.5 MO), Tumor Site: Type of Lesion: LIVER: HEPATOMA): active; positive; carcinogen call (Species: MOUSE, Strain/Sex: B6C3F1/MALE, Route: INTRAPERITONEAL, Dose: 0, 0.01 UMOL/G IN 10 µL/G TRIOCTANOIN ON D 12 OF AGE (STUDY DURATION: 10 MO), Tumor Site: Type of Lesion: LIVER: HEPATOMA): active; positive; carcinogen call (Species: MOUSE, Strain/Sex: BALB/FEMALE, Route: GAVAGE, Dose: 0.5-2 MG IN ALMOND OIL 1/2 WK OR 2/WK FOR 8-10 WK, Tumor Site: Type of Lesion: OVARIES: GRANULOSA CELL TUMOR): active; positive; carcinogen call (Species: MOUSE, Strain/Sex: BALB, Route: SUBCUTANEOUS, Dose: 30 UG IN 0.02 ML OF 1% AQ GEL SUSPENDED ONCE, Tumor Site: Type of Lesion: LUNG: ADENOMA, ADENOCARCINOMA): active; positive; carcinogen call (Species: MOUSE, Strain/Sex: C57BL/FEMALE, Route: DERMAL, Dose: 2.5 MG OF 0.5% SOLN IN 0.5 ML OLIVE OIL 1/2 WK FOR LIFE, Tumor Site: Type of Lesion: INTEGUMENTARY SYSTEM (SKIN)): active; positive; carcinogen call (Species: MOUSE, Strain/Sex: C57BL, Route: DERMAL, Dose: 0.5 ML OF 0.5% SOLN IN OLIVE OIL 1/2 WK FOR 6 WK, Tumor Site: Type of Lesion: OVARIES): active; positive; carcinogen call (Species: MOUSE, Strain/Sex: C57BL, Route: DERMAL, Dose: 0.5 ML OF 0.5% SOLN IN OLIVE OIL 1/2 WK FOR 6 WK, Tumor Site: Type of Lesion: OVARIES, MAMMARY GLAND): active; positive; carcinogen call (Species: MOUSE, Strain/Sex: CBA, Route: SUBCUTANEOUS, Dose: 30 UG IN 15 µL OF 1% AQ GEL ONCE, Tumor Site: Type of Lesion: LUNG): active; positive; carcinogen call (Species: MOUSE, Strain/Sex: CD-1/FEMALE, Route: SUBCUTANEOUS, Dose: 20 MG/KG IN 1% GEL SOLN WITHIN 24 HR OF BIRTH, Tumor Site: Type of Lesion: LUNG: ADENOMA, ADENOCARCINOMA): active; positive; carcinogen call (Species: MOUSE, Strain/Sex: CD-1/MALE, Route: SUBCUTANEOUS, Dose: 20 MG/KG IN 1% GEL SOLN WITHIN 24 HR OF BIRTH, Tumor Site: Type of Lesion: LUNG: ADENOMA, ADENOCARCINOMA, LIVER: ADENOMA): active; positive; carcinogen call (Species: MOUSE, Strain/Sex: ICR, Route: SUBCUTANEOUS, Dose: 0.001, 0.01, 0.1 MG IN 0.05 ML TRICAPRYLIN, Dose: 0.001, 0.01, 0.1 MG IN 0.05 ML TRICAPRYLIN, Tumor Site: Type of Lesion: INJECTION SITE: FIBROSARCOMA, SQUAMOUS CELL CARCINOMA, SARCOMA): active; positive; carcinogen call (Species: MOUSE, Strain/Sex: MALE,FEMALE, Route: DERMAL, Dose: 0.1 ML OF 0.1% SOLN IN ACETONE 1/WK FOR 9 WK, Tumor Site: Type of Lesion: INTEGUMENTARY SYSTEM (SKIN): PAPILLOMA, MALIGNANT PAPILLOMA): active; positive; carcinogen call (Species: MOUSE, Strain/Sex: SENCAR/FEMALE, Route: GAVAGE, Dose: 0, 20, 60, 200 UG IN 0.1 ML CORN OIL 1/D 5 D/WK FOR 6 WK (STUDY DURATION: 53 WK), Dose: 0, 20, 60, 200 UG IN 0.1 ML CORN OIL 1/D 5 D/WK FOR 6 WK (STUDY DURATION: 53 WK), Tumor Site: Type of Lesion: LYMPHATIC SYSTEM: LYMPHOMA, MAMMARY GLAND: CARCINOMA): active; positive; carcinogen call (Species: MOUSE, Strain/Sex: SWISS/FEMALE, Route: DERMAL, Dose: 0, 1, 4, 8 NMOL IN 100 µL ACETONE 2/WK FOR 40 WK (STUDY DURATION: 48 WK), Dose: 0, 1, 4, 8 NMOL IN 100 µL ACETONE 2/WK FOR 40 WK (STUDY DURATION: 48 WK), Tumor Site: Type of Lesion: SKIN: TUMORS): active; positive; carcinogen call (Species: MOUSE, Strain/Sex: SWISS/FEMALE, Route: DERMAL, Dose: 20-500 UG IN ACETONE ONCE, Tumor Site: Type of Lesion: INTEGUMENTARY SYSTEM (SKIN): SQUAMOUS CELL CARCINOMA, SARCOMA, EPITHELIOMA): active; positive; carcinogen call (Species: MOUSE, Strain/Sex: SWISS/FEMALE, Route: DERMAL, Dose: 100, 200 UG IN 50 µL ACETONE ONCE, Tumor Site: Type of Lesion: INTEGUMENTARY SYSTEM (SKIN): PAPILLOMA, CARCINOMA, SARCOMA): active; positive; carcinogen call (Species: MOUSE, Strain/Sex: SWISS/MALE,FEMALE, Route: SUBCUTANEOUS, Dose: 0.9 MG SUSPENDED IN 0.45 ML 1% AQ GEL ONCE, Tumor Site: Type of Lesion: INJECTION SITE: FIBROSARCOMA, SQUAMOUS CELL CARCINOMA): active; positive
